For one assay, the target named is T1, κ opioid receptor (Cavia porcellus, UniProt P41144).
T1 construct: determined in guinea pig brain cells; from tissue; host or cells: guinea pig brain
As to the kind of experiment: biochemical. It is filed as binding, guinea pig.

The target in the next assay is T2, δ opioid receptor (Cavia porcellus, UniProt A0A286XTF2).
T2 construct: determined in guinea pig brain cells; from tissue; host or cells: guinea pig brain
As to the kind of experiment: biochemical. The class given is binding, guinea pig.

Like-named read-outs stand apart in the source and are kept apart here.

T1 sequence (P41144 whole entry): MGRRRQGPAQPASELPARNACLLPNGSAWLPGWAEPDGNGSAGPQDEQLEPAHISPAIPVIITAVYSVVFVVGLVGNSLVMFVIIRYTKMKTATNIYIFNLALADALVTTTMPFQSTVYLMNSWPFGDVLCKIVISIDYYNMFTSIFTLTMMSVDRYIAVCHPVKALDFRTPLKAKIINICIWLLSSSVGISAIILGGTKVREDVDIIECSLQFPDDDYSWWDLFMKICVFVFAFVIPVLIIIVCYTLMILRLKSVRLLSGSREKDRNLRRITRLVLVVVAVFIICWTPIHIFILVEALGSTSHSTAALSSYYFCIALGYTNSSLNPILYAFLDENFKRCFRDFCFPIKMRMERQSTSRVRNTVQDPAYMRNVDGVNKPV
T2 sequence (A0A286XTF2 1-366): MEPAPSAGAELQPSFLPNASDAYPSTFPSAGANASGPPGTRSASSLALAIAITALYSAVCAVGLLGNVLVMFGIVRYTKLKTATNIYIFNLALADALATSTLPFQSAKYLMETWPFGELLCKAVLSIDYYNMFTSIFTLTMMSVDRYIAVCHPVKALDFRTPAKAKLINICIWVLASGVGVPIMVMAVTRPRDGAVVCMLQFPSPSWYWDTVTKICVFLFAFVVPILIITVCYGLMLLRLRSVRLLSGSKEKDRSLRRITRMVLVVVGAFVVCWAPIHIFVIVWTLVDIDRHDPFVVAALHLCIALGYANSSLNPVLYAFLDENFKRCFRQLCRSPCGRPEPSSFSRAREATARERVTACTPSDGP

As to `CC1C2Cc3ccc(CN)cc3C1(C)CCN2CC1CC1` (mixture of isomers) [Example 15, (±)-[3-(Cyclopropylmethyl)-1,2,3,4,5,6,-hexahydro-cis-6,11-dimethyl-2,6-methano-3-benzazocin-8-yl]-methylamine], the results for the Ki on κ opioid receptor (Ki [3H] U69,593 (κ)) and at δ opioid receptor (Ki [3H] Naltrindole (δ)) were 17 ± 2.9 nM and 390 ± 47 nM, respectively.
Turning to `CC1C2Cc3ccc(NC=O)cc3C1(C)CCN2CC1CC1` (mixture of isomers) [Example 19, (±)-N-[3-(Cyclopropylmethyl)-1,2,3,4,5,6,-hexahydro-cis-6,11-dimethyl-2,6-methano-3-benzazocin-8-yl]-formamide], the inhibitory constant (Ki) is 0.85 ± 0.08 nM on κ opioid receptor (read-out: Ki [3H] U69,593 (κ)) and 37 ± 3.9 nM at δ opioid receptor (read-out: Ki [3H] Naltrindole (δ)).
As for `CC[C@@]12CCN(CC3CC3)C(C(=O)c3ccc(O)cc31)C2C` (mixture of isomers) [(±)-EKC, Ethylketocyclazocine, reference compound], affinity at δ opioid receptor ([3H] Naltrindole (δ)) was put at a Ki of 3.4 ± 0.41 nM.
`C[C@H]1C2Cc3ccc(C#N)cc3[C@@]1(C)CCN2CC1CC1` (racemic) [Example 1, (±)-3-(Cyclopropylmethyl)-1,2,3,4,5,6-hexahydro-cis-6,11-dimethyl-2,6-methano-3-benzazocin-8-carbonitrile]: the Ki on κ opioid receptor (Ki [3H] U69,593 (κ)) turned out to be 71 ± 13 nM; at δ opioid receptor (Ki [3H] Naltrindole (δ)), 2700 ± 1400 nM.
Take `C[C@H]1[C@H]2Cc3ccc(C(=O)O)cc3[C@]1(C)CCN2CC1CC1` (racemic) [Example 2]: the inhibition constant Ki at κ opioid receptor (Ki [3H] U69,593 (κ)) came out at 31 ± 0.87 nM; on δ opioid receptor (Ki [3H] Naltrindole (δ)), 320 ± 14 nM.
On to `COC(=O)c1ccc2c(c1)[C@@]1(C)CCN(CC3CC3)C(C2)[C@@H]1C` (racemic) [Example 3, (±)-3-(Cyclopropylmethyl)-1,2,3,4,5,6,-hexahydro-cis-6,11-dimethyl-2,6-methano-3-benzazocin-8-carboxylic acid methyl ester], for which the inhibition constant Ki is 2 ± 0.21 nM at κ opioid receptor (Ki [3H] U69,593 (κ)) and 59 ± 2.1 nM on δ opioid receptor (Ki [3H] Naltrindole (δ)).
As for `C[C@H]1C2Cc3ccc(C(N)=S)cc3[C@@]1(C)CCN2CC1CC1` (racemic) [Example 5, (±)-3-(Cyclopropylmethyl)-1,2,3,4,5,6-hexahydro-cis-6,11-dimethyl-2,6-methano-3-benzazocin-8-thiocarboxamide], the values for the Ki on κ opioid receptor (Ki [3H] U69,593 (κ)) and on δ opioid receptor (Ki [3H] Naltrindole (δ)) were 0.67 ± 0.01 nM and 4 ± 0.48 nM, respectively.
Take `C[C@H]1[C@H]2Cc3ccc(C(=O)NO)cc3[C@]1(C)CCN2CC1CC1` (racemic) [Example 6]: the Ki came to 6.9 ± 0.61 nM on κ opioid receptor (Ki [3H] U69,593 (κ)) and 210 ± 40 nM on δ opioid receptor (Ki [3H] Naltrindole (δ)).
For `COc1ccc(CNC(=O)c2ccc3c(c2)[C@]2(C)CCN(CC4CC4)[C@H](C3)[C@@H]2C)cc1` (racemic) [Example 10], the Ki stood at 110 ± 3.1 nM at κ opioid receptor (Ki [3H] U69,593 (κ)) and 150 ± 17 nM at δ opioid receptor (Ki [3H] Naltrindole (δ)).
For the compound `C[C@H]1[C@H]2Cc3ccc(C(=O)NCCCN(C)C)cc3[C@]1(C)CCN2CC1CC1` (racemic) [Example 12], the Ki on κ opioid receptor (Ki [3H] U69,593 (κ)) was 310 ± 64 nM; on δ opioid receptor (Ki [3H] Naltrindole (δ)) it was 3000 ± 230 nM.
On to `CC1[C@@H]2Cc3ccc(C(=N)NO)cc3[C@@]1(C)CCN2CC1CC1` (mixture of isomers) [Example 14, (±)-3-(Cyclopropylmethyl)-1,2,3,4,5,6-hexahydro-N-hydroxy-cis-6,11-dimethyl-2,6-methano-3-benzazocin-8-carboxamidine], for which the Ki at κ opioid receptor (Ki [3H] U69,593 (κ)) was 0.9 ± 0.15 nM; on δ opioid receptor (Ki [3H] Naltrindole (δ)), 16 ± 0.67 nM.
As for `C[C@H]1C2Cc3ccc(CO)cc3[C@@]1(C)CCN2CC1CC1` (racemic) [Example 16, (±)-[3-(Cyclopropylmethyl)-1,2,3,4,5,6,-hexahydro-cis-6,11-dimethyl-2,6-methano-3-benzazocin-8-yl]-methanol], the figures for the Ki at κ opioid receptor (Ki [3H] U69,593 (κ)) and on δ opioid receptor (Ki [3H] Naltrindole (δ)) were 7.6 ± 0.8 nM and 210 ± 29 nM, respectively.
Regarding `CC1C2Cc3ccc(C(N)=O)cc3C1(C)CCN2CC1CC1` (single isomer, unassigned) [Example 4a], the Ki on δ opioid receptor (Ki [3H] Naltrindole (δ)) amounted to 2.6 ± 0.6 nM.
`CC1C2Cc3ccc(C(N)=O)cc3C1(C)CCN2CC1CC1` (single isomer, unassigned) [Example 4b]: the Ki on δ opioid receptor (Ki [3H] Naltrindole (δ)) is 570 ± 50 nM.
Compound `CC1C2Cc3ccc(C(=O)NN)cc3C1(C)CCN2CC1CC1` (stereo not drawn) [Example 7] displayed a Ki at κ opioid receptor (Ki [3H] U69,593 (κ)) of 19 ± 1.4 nM.
In turn, `Oc1ccc2c3c1O[C@H]1c4[nH]c5ccccc5c4C[C@@]4(O)[C@@H](C2)N(CC2CC2)CC[C@]314` [naltrindole (3-OH), Naltrindole, reference compound] had a Ki on κ opioid receptor ([3H] U69,593 (κ)) of 4.6 ± 0.23 nM.

Usually Ki stands for the dissociation constant of the complex between target and ligand, obtained from inhibition or displacement.

The values above are taken from patent US9932349B2 (priority 2000, dated 2018).
